Test results from patent US5919668A, “Non-reducing saccharide and its production and use” (Kabushiki Kaisha Hayashibara Seibutsu Kagaku Kenkyujo, priority 1994, dated 1999).
Entries after “also recorded” stand apart in the source; their conditions may differ.

What was measured:
[1] = Reducing power by the Somogyi-Nelson method, represented in terms of DE; format: physicochemical; settings: high-purity preparations, Somogyi-Nelson method
Method: The high-purity preparations of the newly formed saccharides were determined for reducing power by the Somogyi-Nelson method and represented in terms of DE.

[2] = Maillard reaction (coloration with glycine, absorbance at 480 nm); format: physicochemical; settings: for Coloration degree relative to maltooligosaccharides as material: 480 nm, with glycine
Method: Solutions of 10% saccharide preparation PI, PII, PIII, PIV or PV prepared in Experiment 4 and 1% glycine in 50 mM phosphate buffer (pH7.0) were incubated at 100° C. for 90 minuets, cooled and determined in 1 cm cuvette for absorbance at 480 nm. As control, maltotriose, maltotetraose, maltopentaose, maltohexaose and maltoheptaose which were used as the starting materials were treated similarly as above and determined for absorbance at 480 nm.
10% High-purity trehalose preparation, purity of 99.5%, obtained by the method in Experiment 17 and 1% glycine in 50 mM phosphate buffer (pH7.0) was incubated at 100° C. for 90 minutes, cooled and measured in lcm cuvette for absorbance at 480 nm. As control, glucose and maltose were treated similarly as above and then measured for absorbance at 480 nm.

[3] = system: glucoamylase; test: Enzymatic hydrolysis by glucoamylase; format: biochemical; settings: for Molar ratio (glucose/trehalose): degradation product by glucoamylase; for Glucose in degradation product by glucoamylase / Trehalose in degradation product by glucoamylase: pH4.5, 40° C., 6 hours
Method: Fifty milligrams of the non-reducing saccharide preparation PI, PII, PIII, PIV or PV prepared in Experiment 4 was dissolved in 1 ml of 50 mM acetate buffer (pH4.5), added with one unit of the glucoamylase commercialized by Seikagaku Corp., Tokyo, Japan, incubated at 40° C. for 6 hours for enzymatic hydrolysis and analyzed for degradation products on high-performance liquid chromatography, thus detecting glucose and trehalose as sole products. The noted glucose contents, trehalose contents and their molar ratios were as shown in Table 5.

[4] = system: beta-amylase; test: Degradation by beta-amylase; format: biochemical
Source text: Considering the reaction characteristics of glucoamylase, these saccharides very likely bear structures where glucose molecule(s) is bound to trehalose molecule via alpha1,4 or alpha-1,6 linkage: Saccharide PI is a non-reducing saccharide with a glucose polymerization degree of 3 where one glucose molecule is bound to one trehalose molecule; saccharide PII, another non-reducing saccharide with a glucose polymerization degree of 4 where two glucose molecules are bound to one trehalose molecule; saccharide PIII, still another non-reducing saccharide with a glucose polymerization degree of 5 where three glucose molecules are bound to one trehalose molecule; saccharide PIV, still another non-reducing saccharide with a glucose polymerization degree of 6 where four glucose molecules are bound to one trehalose molecule; and saccharide PV, still another non-reducing saccharide with a polymerization degree of 7 where five glucose molecules are bound to one trehalose molecule.

[5] = system: pig pancreas alpha-amylase; test: Degradation by pig pancreas alpha-amylase; format: biochemical; settings: for G1 (glucose) in degradation product by alpha-amylase / G2 (maltose) in degradation product by alpha-amylase / G3 (maltotriose) in degradation product by alpha-amylase / PI in degradation product by alpha-amylase / PII in degradation product by alpha-amylase: pH6.9, 37° C., 18 hours
Method: (§1) The non-reducing saccharide preparations PI, PII, PIII, PIV and PV as substrates prepared in Experiment 4 were subjected to pig pancreas alpha-amylase, rice alpha-glucosidase and acetone-pulverized rat small intestine enzyme, all of which were products of Sigma Chemical Co., St Louis, Mo., USA, and the degradation products were analyzed on high-performance liquid chromatography for saccharide composition. The reaction by alpha-amylase was carried out by dissolving 10 mg of either substrate in 1 ml of 50 mM phosphate buffer (pH6.9), adding thereto one unit of alpha-amylase and incubating at 37° C. for 18 hours. The reaction by alpha-glucosidase was conducted similarly as in the case of alpha-amylase except that 50 mM acetate buffer (pH4.0) was used. In the case of acetone-pulverized rat small intestine enzyme, the reaction was conducted similarly as in the case of alpha-amylase except that 50 mM maleic acid buffer (pH6.0) was used.

[6] = system: rice alpha-glucosidase; test: Degradation by rice alpha-glucosidase; format: biochemical; settings: for Glucose in degradation product by alpha-glucosidase / Others in degradation product by alpha-glucosidase / Trehalose in degradation product by alpha-glucosidase: pH4.0, 37° C., 18 hours
Method: as §1

[7] = system: acetone-pulverized rat small intestine enzyme; test: Degradation by acetone-pulverized rat small intestine enzyme; format: biochemical; settings: for Glucose in degradation product by acetone-powdered rat small intestine enzyme / Others in degradation product by acetone-powdered rat small intestine enzyme / Trehalose in degradation product by acetone-powdered rat small intestine enzyme: pH6.0, 37° C., 18 hours
Method: as §1

[8] = system: pig kidney trehalase; test: Degradation by pig kidney trehalase; format: biochemical; settings: trehalose, or trehalose formed from PI-PV; pH5.7, 37° C., 18 hours for the latter
Method: In order to purify trehalose from respective reaction products, they were decolored, deionized, concentrated and subjected to column fractionation on a strongly-acidic cation exchange of sodium form "XT-1016", followed by recovering high-purity fractions with trehalose contents of 97% or higher. The fractions were then concentrated to about 65% and allowed to standing at 25° C. for 2 days to crystallize out crystalline trehalose hydrate which was then separated and dried in vacuo to obtain a high-purity preparation with a trehalose content of 99% or higher. The yields against respective starting substrates on dry solid basis were as follows: from glycosyl trehalose, 9.5%; from maltosyl trehalose, 14.9%; from maltotriosyl trehalose, 16.0%; from maltotetraosyl trehalose, 18.5%; and from maltopentaosyl trehalose, 17.7%. […] As evident from the above results, the saccharides formed by subjecting alpha-glycosyl trehaloses to the trehalose-releasing enzyme were identified to be trehalose.

[9] = system: mice; test: Acute toxicity test, oral administration in mice; format: in vivo; settings: for Animal death at the possible highest dose: oral, mice
Method: Acute toxicity tests were conducted on the non-reducing saccharide preparations PI, PII, PIII, PIV and PV prepared in Experiment 4, where they were orally administered to 7 week-old dd mice. […] Thus the LD50 of these saccharides was at least 50 g/kg or higher.
An acute toxicity test was conducted on a high-purity trehalose preparation obtained by the method in Experiment 17, purity of 99.5%, where it was orally administered in mice. […] Thus its LD50 would be briefly 50 g/kg or higher.

| Structure (SMILES) | DE of saccharide preparation [1] | Coloration degree relative to maltooligosaccharides as material [2] | Degradation by glucoamylase (in words) [3] | Molar ratio (glucose/trehalose) [3] | Glucose in degradation product by glucoamylase [3] | Trehalose in degradation product by glucoamylase [3] | Degradation by beta-amylase (in words) [4] | Degradation by alpha-amylase (in words) [5] | G1 (glucose) in degradation product by alpha-amylase [5] | G2 (maltose) in degradation product by alpha-amylase [5] | G3 (maltotriose) in degradation product by alpha-amylase [5] | PI in degradation product by alpha-amylase [5] | PII in degradation product by alpha-amylase [5] | Degradation by alpha-glucosidase (in words) [6] | Glucose in degradation product by alpha-glucosidase [6] | Others in degradation product by alpha-glucosidase [6] | Trehalose in degradation product by alpha-glucosidase [6] | Degradation by acetone-pulverized rat small intestine enzyme (in words) [7] | Glucose in degradation product by acetone-powdered rat small intestine enzyme [7] | Others in degradation product by acetone-powdered rat small intestine enzyme [7] | also measured |
| --- | --- | --- | --- | --- | --- | --- | --- | --- | --- | --- | --- | --- | --- | --- | --- | --- | --- | --- | --- | --- | --- |
| OC[C@H]1O[C@H](O[C@H]2O[C@H](CO)[C@@H](O[C@H]3O[C@H](CO)[C@@H](O[C@H]4O[C@H](CO)[C@@H](O[C@H]5O[C@H](CO)[C@@H](O[C@H]6O[C@H](CO)[C@@H](O)[C@H](O)[C@H]6O)[C@H](O)[C@H]5O)[C@H](O)[C@H]4O)[C@H](O)[C@H]3O)[C@H](O)[C@H]2O)[C@H](O)[C@@H](O)[C@@H]1O [PIV, alpha-maltotetraosyl trehalose] | 0.27 | 3-6% | four glucose molecules and one trehalose molecule | 4.09 | 68.3% | 31.7% | one maltose molecules and one saccharide PII molecule | degraded by alpha-amylase into smaller oligosaccharides | 1.6% | 7.5% | 40.4% | 47.2% | 3.3% | degradable | 69.5% | 0.3% | 30.2% | degradable | 68.8% | 0.4% | Trehalose in degradation product by acetone-powdered rat small intestine enzyme [7]: 30.8%; Degradation by pig kidney trehalase (in words) [8]: degradable into glucose by the trehalase; LD50 ([9]; mouse, in vivo, po): at least 50 g/kg; Animal death at the possible highest dose [9]: no animal death was observed |
| OC[C@H]1O[C@H](O[C@H]2O[C@H](CO)[C@@H](O[C@H]3O[C@H](CO)[C@@H](O[C@H]4O[C@H](CO)[C@@H](O)[C@H](O)[C@H]4O)[C@H](O)[C@H]3O)[C@H](O)[C@H]2O)[C@H](O)[C@@H](O)[C@@H]1O [PII, alpha-maltosyl trehalose] | 0.35 | 3-6% | two glucose molecules and one trehalose molecule; also recorded: one trehalose molecule and two glucose molecules | 2.06 | 52.0% | 48.0% | not degraded | hardly degraded by alpha-amylase | 0% | 0.8% | 0.4% | 0% | 98.8% | degradable | 52.1% | 0.3% | 47.6% | degradable | 52.5% | 0.4% | Coloration degree at 480 nm ([2]; 10% saccharide, 1% glycine, 50 mM phosphate buffer pH7.0, 100° C., 90 minutes, 1 cm cuvette): 0.018; Trehalose in degradation product by acetone-powdered rat small intestine enzyme [7]: 47.1%; Degradation by pig kidney trehalase (in words) [8]: degradable into glucose by the trehalase; Animal death at the possible highest dose [9]: no animal death was observed |
